# Laboratory results taken from US20020111274A1, “1-alkyl-3-[1-(substituted phenyl) benzotriazol-6-yl] uracils” (BASF Aktiengesellschaft, priority 2000, published 2002).
# Assays:
# Parameters in all cases: scale not given here
# SETVI Foxtail, Green [1] = test: Preemergence herbicidal evaluation, SETVI; format: in vivo, Setaria viridis, (L.) Beau; conditions: preemergence
# Text: (§1) The preemergence herbicidal activity of the test compounds of the present invention is exemplified by the following tests in which the seeds of a variety of monocotyledonous and dicotyledonous plants are separately mixed with potting soil and planted on top of approximately one inch of soil in separate pint cups. […] The treated cups are then placed on greenhouse benches, watered and cared for in accordance with conventional greenhouse procedures. From four to five weeks after treatment, the tests are terminated and each cup is examined and rated according to the rating system provided in Example 46.
# [2] = tested on: TRZAWR Wheat, Winter, cv Riband; test: Postemergence herbicidal evaluation, TRZAWR; format: in vivo, Triticum aestivum; conditions: postemergence spray, rated about two-three weeks after treatment
# Method: (§2) In this evaluation, seedling plants are grown in jiffy flats for about two weeks. The test compounds are dispersed in 80/20 acetone/water mixtures containing 1.0% SUN-IT® II, a methylated seed oil, in sufficient quantities to provide the equivalent of about 0.006 kg to 0.400 kg per hectare of active compound when applied to the plants through a spray nozzle operating at 40 psi for a predetermined time. After spraying, the plants are placed on greenhouse benches and are cared for in accordance with conventional greenhouse procedures. Approximately two - three weeks after treatment, the seedling plants are examined and rated according to the rating system set forth below. Where more than one test is involved for a given compound, the data are averaged.
# ZEAMX Corn, Field [3] = test: Preemergence herbicidal evaluation, ZEAMX; format: in vivo, Zea mays, L. (Sammel-Bezeichnung); conditions: preemergence
# Text: as §1
# GLXMAW Soybean, Williams [4] = test: Postemergence herbicidal evaluation, GLXMAW; format: in vivo, Glycine max, (L.) Merr. cv Williams; conditions: postemergence spray, rated about two-three weeks after treatment
# Method: as §2
# [5] = tested on: TRZAWR Wheat, Winter, cv Riband; test: Preemergence herbicidal evaluation, TRZAWR; format: in vivo, Triticum aestivum; conditions: preemergence
# Text: as §1
# ABUTH Velvetleaf [6] = test: Postemergence herbicidal evaluation, ABUTH; format: in vivo, Abutilon theophrasti, Medic.; conditions: postemergence spray, rated about two-three weeks after treatment
# Method: as §2
# GALAP Galium [7] = test: Postemergence herbicidal evaluation, GALAP; format: in vivo, Galium aparine; conditions: postemergence spray, rated about two-three weeks after treatment
# Method: as §2
# CASOB Sicklepod [8] = test: Preemergence herbicidal evaluation, CASOB; format: in vivo, Cassia obtusifolia, L.; conditions: preemergence
# Text: as §1
# [9] = tested on: IPOHE Morningglory, Ivyleaf; test: Postemergence herbicidal evaluation, IPOHE; format: in vivo, Ipomoea hederacea, (L.) Jacq.; conditions: postemergence spray, rated about two-three weeks after treatment
# Method: as §2
# [10] = tested on: IPOHE Morningglory, Ivyleaf; test: Preemergence herbicidal evaluation, IPOHE; format: in vivo, Ipomoea hederacea, (L.) Jacq.; conditions: preemergence
# Text: as §1
# [11] = tested on: CHEAL Lambsquarters, Common; test: Postemergence herbicidal evaluation, CHEAL; format: in vivo, Chenopodium album, L.; conditions: postemergence spray, rated about two-three weeks after treatment
# Method: as §2
# AMBEL Ragweed, Common [12] = test: Postemergence herbicidal evaluation, AMBEL; format: in vivo, Ambrosia artemisifolia, L.; conditions: postemergence spray, rated about two-three weeks after treatment
# Method: as §2
# SETVI Foxtail, Green [13] = test: Postemergence herbicidal evaluation, SETVI; format: in vivo, Setaria viridis, (L.) Beau; conditions: postemergence spray, rated about two-three weeks after treatment
# Method: as §2
# GLXMAW Soybean, Williams [14] = test: Preemergence herbicidal evaluation, GLXMAW; format: in vivo, Glycine max, (L.) Merr. cv Williams; conditions: preemergence
# Text: as §1
# ECHOG Barnyardgrass [15] = test: Preemergence herbicidal evaluation, ECHOG; format: in vivo, Echinochloa crus-galli, (L.) Beau; conditions: preemergence
# Text: as §1
# AMBEL Ragweed, Common [16] = test: Preemergence herbicidal evaluation, AMBEL; format: in vivo, Ambrosia artemisifolia, L.; conditions: preemergence
# Text: as §1
# ORYSAT Rice, Tebonnet [17] = test: Preemergence herbicidal evaluation, ORYSAT; format: in vivo, Oryza sativa, (L.); conditions: preemergence
# Text: as §1
# CASOB Sicklepod [18] = test: Postemergence herbicidal evaluation, CASOB; format: in vivo, Cassia obtusifolia, L.; conditions: postemergence spray, rated about two-three weeks after treatment
# Method: as §2
# ZEAMX Corn, Field [19] = test: Postemergence herbicidal evaluation, ZEAMX; format: in vivo, Zea mays, L. (Sammel-Bezeichnung); conditions: postemergence spray, rated about two-three weeks after treatment
# Method: as §2
# ABUTH Velvetleaf [20] = test: Preemergence herbicidal evaluation, ABUTH; format: in vivo, Abutilon theophrasti, Medic.; conditions: preemergence
# Text: as §1
# ECHOG Barnyardgrass [21] = test: Postemergence herbicidal evaluation, ECHOG; format: in vivo, Echinochloa crus-galli, (L.) Beau; conditions: postemergence spray, rated about two-three weeks after treatment
# Method: as §2
# ORYSAT Rice, Tebonnet [22] = test: Postemergence herbicidal evaluation, ORYSAT; format: in vivo, Oryza sativa, (L.); conditions: postemergence spray, rated about two-three weeks after treatment
# Method: as §2
# [23] = tested on: CHEAL Lambsquarters, Common; test: Preemergence herbicidal evaluation, CHEAL; format: in vivo, Chenopodium album, L.; conditions: preemergence
# Text: as §1
# GALAP Galium [24] = test: Preemergence herbicidal evaluation, GALAP; format: in vivo, Galium aparine; conditions: preemergence
# Text: as §1
smiles,measurement,setting,value
COc1ccc(-n2nnc3cc(F)c(-n4c(=O)cc(C(F)(F)F)n(C)c4=O)cc32)c(C)c1 [Example 24],SETVI herbicidal rating,"SETVI Foxtail, Green [1]; rate 0.016 kg/ha",0.0
same,SETVI herbicidal rating,"SETVI Foxtail, Green [1]; rate 0.032 kg/ha",0.0
same,SETVI herbicidal rating,"SETVI Foxtail, Green [1]; rate 0.062 kg/ha",9.0
same,SETVI herbicidal rating,"SETVI Foxtail, Green [1]; rate 0.125 kg/ha",9.0
same,Postemergence herbicidal rating TRZAWR,[2]; 0.008 kg/ha,2.5
same,Postemergence herbicidal rating TRZAWR,[2]; 0.016 kg/ha,2.5
same,Postemergence herbicidal rating TRZAWR,[2]; 0.032 kg/ha,2.5
same,Postemergence herbicidal rating TRZAWR,[2]; 0.062 kg/ha,3.5
same,ZEAMX herbicidal rating,"ZEAMX Corn, Field [3]; rate 0.016 kg/ha",0.0
same,ZEAMX herbicidal rating,"ZEAMX Corn, Field [3]; rate 0.032 kg/ha",0.0
same,ZEAMX herbicidal rating,"ZEAMX Corn, Field [3]; rate 0.062 kg/ha",4.0
same,ZEAMX herbicidal rating,"ZEAMX Corn, Field [3]; rate 0.125 kg/ha",6.0
same,Postemergence herbicidal rating GLXMAW,"GLXMAW Soybean, Williams [4]; 0.008 kg/ha",3.0
same,Postemergence herbicidal rating GLXMAW,"GLXMAW Soybean, Williams [4]; 0.016 kg/ha",3.5
same,Postemergence herbicidal rating GLXMAW,"GLXMAW Soybean, Williams [4]; 0.032 kg/ha",4.0
same,Postemergence herbicidal rating GLXMAW,"GLXMAW Soybean, Williams [4]; 0.062 kg/ha",4.0
same,TRZAWR herbicidal rating,[5]; rate 0.016 kg/ha,0.0
same,TRZAWR herbicidal rating,[5]; rate 0.032 kg/ha,0.0
same,TRZAWR herbicidal rating,[5]; rate 0.062 kg/ha,1.0
same,TRZAWR herbicidal rating,[5]; rate 0.125 kg/ha,1.0
same,Postemergence herbicidal rating ABUTH,ABUTH Velvetleaf [6]; 0.008 kg/ha,3.0
same,Postemergence herbicidal rating ABUTH,ABUTH Velvetleaf [6]; 0.016 kg/ha,9.0
same,Postemergence herbicidal rating ABUTH,ABUTH Velvetleaf [6]; 0.032 kg/ha,9.0
same,Postemergence herbicidal rating ABUTH,ABUTH Velvetleaf [6]; 0.062 kg/ha,9.0
same,Postemergence herbicidal rating GALAP,GALAP Galium [7]; 0.008 kg/ha,0.0
same,Postemergence herbicidal rating GALAP,GALAP Galium [7]; 0.016 kg/ha,1.0
same,Postemergence herbicidal rating GALAP,GALAP Galium [7]; 0.032 kg/ha,2.0
same,Postemergence herbicidal rating GALAP,GALAP Galium [7]; 0.062 kg/ha,3.0
same,CASOB herbicidal rating,CASOB Sicklepod [8]; rate 0.016 kg/ha,0.0
same,CASOB herbicidal rating,CASOB Sicklepod [8]; rate 0.032 kg/ha,0.0
same,CASOB herbicidal rating,CASOB Sicklepod [8]; rate 0.062 kg/ha,0.0
same,CASOB herbicidal rating,CASOB Sicklepod [8]; rate 0.125 kg/ha,0.0
same,Postemergence herbicidal rating IPOHE,[9]; 0.008 kg/ha,0.0
same,Postemergence herbicidal rating IPOHE,[9]; 0.016 kg/ha,3.0
same,Postemergence herbicidal rating IPOHE,[9]; 0.032 kg/ha,4.0
same,Postemergence herbicidal rating IPOHE,[9]; 0.062 kg/ha,4.0
same,IPOHE herbicidal rating,[10]; rate 0.016 kg/ha,0.0
same,IPOHE herbicidal rating,[10]; rate 0.032 kg/ha,0.0
same,IPOHE herbicidal rating,[10]; rate 0.062 kg/ha,0.0
same,IPOHE herbicidal rating,[10]; rate 0.125 kg/ha,0.0
same,Postemergence herbicidal rating CHEAL,[11]; 0.008 kg/ha,3.0
same,Postemergence herbicidal rating CHEAL,[11]; 0.016 kg/ha,3.0
same,Postemergence herbicidal rating CHEAL,[11]; 0.032 kg/ha,3.0
same,Postemergence herbicidal rating CHEAL,[11]; 0.062 kg/ha,4.0
same,Postemergence herbicidal rating AMBEL,"AMBEL Ragweed, Common [12]; 0.008 kg/ha",0.0
same,Postemergence herbicidal rating AMBEL,"AMBEL Ragweed, Common [12]; 0.016 kg/ha",0.0
same,Postemergence herbicidal rating AMBEL,"AMBEL Ragweed, Common [12]; 0.032 kg/ha",0.0
same,Postemergence herbicidal rating AMBEL,"AMBEL Ragweed, Common [12]; 0.062 kg/ha",2.0
same,Postemergence herbicidal rating SETVI,"SETVI Foxtail, Green [13]; 0.008 kg/ha",0.0
same,Postemergence herbicidal rating SETVI,"SETVI Foxtail, Green [13]; 0.016 kg/ha",0.0
same,Postemergence herbicidal rating SETVI,"SETVI Foxtail, Green [13]; 0.032 kg/ha",0.0
same,Postemergence herbicidal rating SETVI,"SETVI Foxtail, Green [13]; 0.062 kg/ha",0.0
same,GLXMAW herbicidal rating,"GLXMAW Soybean, Williams [14]; rate 0.016 kg/ha",0.0
same,GLXMAW herbicidal rating,"GLXMAW Soybean, Williams [14]; rate 0.032 kg/ha",1.0
same,GLXMAW herbicidal rating,"GLXMAW Soybean, Williams [14]; rate 0.062 kg/ha",2.0
same,GLXMAW herbicidal rating,"GLXMAW Soybean, Williams [14]; rate 0.125 kg/ha",5.0
same,ECHCG herbicidal rating,ECHOG Barnyardgrass [15]; rate 0.016 kg/ha,0.0
same,ECHCG herbicidal rating,ECHOG Barnyardgrass [15]; rate 0.032 kg/ha,0.0
same,ECHCG herbicidal rating,ECHOG Barnyardgrass [15]; rate 0.062 kg/ha,3.0
same,ECHCG herbicidal rating,ECHOG Barnyardgrass [15]; rate 0.125 kg/ha,7.0
same,AMBEL herbicidal rating,"AMBEL Ragweed, Common [16]; rate 0.016 kg/ha",0.0
same,AMBEL herbicidal rating,"AMBEL Ragweed, Common [16]; rate 0.032 kg/ha",0.0
same,AMBEL herbicidal rating,"AMBEL Ragweed, Common [16]; rate 0.062 kg/ha",0.0
same,AMBEL herbicidal rating,"AMBEL Ragweed, Common [16]; rate 0.125 kg/ha",0.0
same,ORYSAT herbicidal rating,"ORYSAT Rice, Tebonnet [17]; rate 0.016 kg/ha",0.0
same,ORYSAT herbicidal rating,"ORYSAT Rice, Tebonnet [17]; rate 0.032 kg/ha",0.0
same,ORYSAT herbicidal rating,"ORYSAT Rice, Tebonnet [17]; rate 0.062 kg/ha",1.0
same,ORYSAT herbicidal rating,"ORYSAT Rice, Tebonnet [17]; rate 0.125 kg/ha",1.0
same,Postemergence herbicidal rating CASOB,CASOB Sicklepod [18]; 0.008 kg/ha,0.0
same,Postemergence herbicidal rating CASOB,CASOB Sicklepod [18]; 0.016 kg/ha,0.0
same,Postemergence herbicidal rating CASOB,CASOB Sicklepod [18]; 0.032 kg/ha,0.0
same,Postemergence herbicidal rating CASOB,CASOB Sicklepod [18]; 0.062 kg/ha,0.0
same,Postemergence herbicidal rating ZEAMX,"ZEAMX Corn, Field [19]; 0.008 kg/ha",3.5
same,Postemergence herbicidal rating ZEAMX,"ZEAMX Corn, Field [19]; 0.016 kg/ha",3.5
same,Postemergence herbicidal rating ZEAMX,"ZEAMX Corn, Field [19]; 0.032 kg/ha",3.5
same,Postemergence herbicidal rating ZEAMX,"ZEAMX Corn, Field [19]; 0.062 kg/ha",4.5
same,ABUTH herbicidal rating,ABUTH Velvetleaf [20]; rate 0.016 kg/ha,0.0
same,ABUTH herbicidal rating,ABUTH Velvetleaf [20]; rate 0.032 kg/ha,6.0
same,ABUTH herbicidal rating,ABUTH Velvetleaf [20]; rate 0.062 kg/ha,9.0
same,ABUTH herbicidal rating,ABUTH Velvetleaf [20]; rate 0.125 kg/ha,9.0
same,Postemergence herbicidal rating ECHCG,ECHOG Barnyardgrass [21]; 0.008 kg/ha,0.0
same,Postemergence herbicidal rating ECHCG,ECHOG Barnyardgrass [21]; 0.016 kg/ha,0.0
same,Postemergence herbicidal rating ECHCG,ECHOG Barnyardgrass [21]; 0.032 kg/ha,0.0
same,Postemergence herbicidal rating ECHCG,ECHOG Barnyardgrass [21]; 0.062 kg/ha,0.0
same,Postemergence herbicidal rating ORYSAT,"ORYSAT Rice, Tebonnet [22]; 0.008 kg/ha",2.0
same,Postemergence herbicidal rating ORYSAT,"ORYSAT Rice, Tebonnet [22]; 0.016 kg/ha",2.0
same,Postemergence herbicidal rating ORYSAT,"ORYSAT Rice, Tebonnet [22]; 0.032 kg/ha",2.0
same,Postemergence herbicidal rating ORYSAT,"ORYSAT Rice, Tebonnet [22]; 0.062 kg/ha",2.5
same,CHEAL herbicidal rating,[23]; rate 0.016 kg/ha,0.0
same,CHEAL herbicidal rating,[23]; rate 0.032 kg/ha,0.0
same,CHEAL herbicidal rating,[23]; rate 0.062 kg/ha,9.0
same,CHEAL herbicidal rating,[23]; rate 0.125 kg/ha,9.0
same,GALAP herbicidal rating,GALAP Galium [24]; rate 0.016 kg/ha,0.0
same,GALAP herbicidal rating,GALAP Galium [24]; rate 0.032 kg/ha,0.0
same,GALAP herbicidal rating,GALAP Galium [24]; rate 0.062 kg/ha,0.0
